From patent US20090298783A1, “Cosmetic Compositions” (Cognis IPanagement GmbH, priority 2006, published 2009)
Marks after values point to notes of the source that are not given here.

What was measured:
GMCSF = experiment: Nickel-induced GMCSF release from human keratinocytes (ELISA); format: cell-based; conditions: 48 hours
Procedure: (§1) The soothing potential of silybin, piperin, rhapontin, nortrachelogenine and arctiin was evaluated on primary culture of human keratinocytes treated by a nickel salt (nickel chloride, Sigma) according to the method of Ermolli M, et al. “Nickel, cobalt and chromium-induced cytotoxicity and intracellular accumulation in human HaCaT keratinocytes” [Toxicology. 2001 Feb. 21; 159(1-2): 23-31] and compared to hydrocortisone (HOC; Sigma, France).
(§2) After a growth phase in medium enriched by fetal calf serum, the cells were treated with the nickel salt and with the test compounds. After 48 hours at 37° C., CO2=5%, the level of released GMCSF (ELISA method) and cell viability (MTT test) were determined.

[1] = system: primary culture of human keratinocytes; experiment: Cell viability (MTT test) of nickel-treated human keratinocytes; conditions: nickel salt alone at 0.75 mM, 48 hours
Procedure: as §1, §2

[2] = first set, Ni 0.75 mM (=100) + test compound at 0.001%, mean +/- SEM on 3 separate assays

What does the source list for `COc1ccc(/C=C/c2cc(O)cc(O[C@@H]3O[C@H](CO)[C@@H](O)[C@H](O)[C@H]3O)c2)cc1O` [rhapontin, 3,3′,5-Trihydroxy-4′-methoxystilbene 3-b-D-glucopyranoside]?
GMCSF released (GMCSF; second set, Ni 0.75 mM (=100) + test compound at 0.01%, mean on 1 assay in triplicate): 72 percentage referring to control; GMCSF released (GMCSF; second set, Ni 0.75 mM (=100) + test compound at 0.01%, mean on 1 assay in triplicate, listed as Rhapontin): lowered

What does the source list for `[Cl][Ni][Cl]` [Nickel (Ni), nickel chloride]?
MTT ([1]; first set, mean +/- SEM on 3 separate assays): 68 +/− 9 percentage referring to control; MTT ([1]; first set, mean +/- SEM on 3 separate assays, listed as nickel): distinctly decreased cell viability; MTT ([1]; second set, mean on 1 assay in triplicate): 33 percentage referring to control

Which results are given for `COc1cc([C@H]2Oc3cc([C@H]4Oc5cc(O)cc(O)c5C(=O)[C@@H]4O)ccc3O[C@@H]2CO)ccc1O` [silybin]?
GMCSF released (GMCSF; first set, Ni 0.75 mM (=100) + test compound at 0.0003%, mean +/- SEM on 3 separate assays): 88 +/− 19 percentage referring to control; GMCSF released (GMCSF; [2]): 48 +/− 12* percentage referring to control; GMCSF released (GMCSF; first set, Ni 0.75 mM (=100) + test compound at 0.001%, mean +/- SEM on 3 separate assays, listed as Silybin): significantly lowered

Which results are given for `O=C(/C=C/C=C/c1ccc2c(c1)OCO2)N1CCCCC1` [piperine, (E,E)-1-[5-(1,3-benzodioxol-5-yl)-1-oxo-2,4-pentadienyl]piperidine]?
GMCSF released (GMCSF; [2]): 79 +/− 14 percentage referring to control; GMCSF released (GMCSF; first set, Ni 0.75 mM (=100) + test compound at 0.003%, mean +/- SEM on 3 separate assays): 29 +/− 13* percentage referring to control; GMCSF released (GMCSF; first set, Ni 0.75 mM (=100) + test compound at 0.003%, mean +/- SEM on 3 separate assays, listed as Piperine): significantly lowered

`C[C@]12CCC(=O)C=C1CC[C@@H]1[C@@H]2[C@@H](O)C[C@@]2(C)[C@H]1CC[C@]2(O)C(=O)CO` [HOC, hydrocortisone, reference compound] was tested. Which GMCSF released (GMCSF; second set, Ni 0.75 mM (=100) + test compound at 1 μM, mean on 1 assay in triplicate) did it give?
Its GMCSF released is 52 percentage referring to control.
